Ki and inhibition data for 2 compounds are collected here from ChEMBL document CHEMBL4507299, “Data for DCP probe PF-04554878” (2021).

The target of assay [1] is T1, D(1A) dopamine receptor (Homo sapiens, UniProt P21728). The assay can be described thus: GPCRScan assay: inhibition of D1. More on the design: radioligand conc. used [nm] 0.6 – 1.3, parental cells HEKT.
The next assay addresses Adenosine receptor A2a (Homo sapiens, UniProt P29274). The assay can be described thus: Cerep profiling assay (ADORA2A). More on the design: compound concentration 10 uM.
Assay [2] deals with T2, Serine/threonine-protein kinase Chk1 (Homo sapiens) (UniProt O14757).
T2 sequence (whole entry): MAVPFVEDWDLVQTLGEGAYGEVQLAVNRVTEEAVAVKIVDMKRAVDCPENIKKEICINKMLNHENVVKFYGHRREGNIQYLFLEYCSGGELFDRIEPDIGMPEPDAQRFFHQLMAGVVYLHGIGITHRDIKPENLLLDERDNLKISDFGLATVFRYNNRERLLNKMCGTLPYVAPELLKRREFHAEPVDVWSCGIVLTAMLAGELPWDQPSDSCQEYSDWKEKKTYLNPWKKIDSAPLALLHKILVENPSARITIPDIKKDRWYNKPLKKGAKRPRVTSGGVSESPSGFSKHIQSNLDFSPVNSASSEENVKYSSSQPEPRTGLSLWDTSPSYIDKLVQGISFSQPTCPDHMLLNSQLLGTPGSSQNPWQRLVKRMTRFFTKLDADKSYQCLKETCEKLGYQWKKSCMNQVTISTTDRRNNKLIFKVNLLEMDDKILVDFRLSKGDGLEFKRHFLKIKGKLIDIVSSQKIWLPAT
The assay can be described thus: CHK1 Invitrogen kinase activity assay. As to conditions: Compound concentration 1.0 uM; call rule not given here.

Assay [3] addresses Casein kinase II subunit alpha (Homo sapiens) (UniProt P68400). The assay can be described thus: CK2 Invitrogen kinase activity assay. As to conditions: Compound concentration 1.0 uM.
For assay [4], the target named is T3, Inhibitor of nuclear factor kappa-B kinase subunit epsilon (Homo sapiens) (UniProt Q14164).
T3 sequence (whole entry): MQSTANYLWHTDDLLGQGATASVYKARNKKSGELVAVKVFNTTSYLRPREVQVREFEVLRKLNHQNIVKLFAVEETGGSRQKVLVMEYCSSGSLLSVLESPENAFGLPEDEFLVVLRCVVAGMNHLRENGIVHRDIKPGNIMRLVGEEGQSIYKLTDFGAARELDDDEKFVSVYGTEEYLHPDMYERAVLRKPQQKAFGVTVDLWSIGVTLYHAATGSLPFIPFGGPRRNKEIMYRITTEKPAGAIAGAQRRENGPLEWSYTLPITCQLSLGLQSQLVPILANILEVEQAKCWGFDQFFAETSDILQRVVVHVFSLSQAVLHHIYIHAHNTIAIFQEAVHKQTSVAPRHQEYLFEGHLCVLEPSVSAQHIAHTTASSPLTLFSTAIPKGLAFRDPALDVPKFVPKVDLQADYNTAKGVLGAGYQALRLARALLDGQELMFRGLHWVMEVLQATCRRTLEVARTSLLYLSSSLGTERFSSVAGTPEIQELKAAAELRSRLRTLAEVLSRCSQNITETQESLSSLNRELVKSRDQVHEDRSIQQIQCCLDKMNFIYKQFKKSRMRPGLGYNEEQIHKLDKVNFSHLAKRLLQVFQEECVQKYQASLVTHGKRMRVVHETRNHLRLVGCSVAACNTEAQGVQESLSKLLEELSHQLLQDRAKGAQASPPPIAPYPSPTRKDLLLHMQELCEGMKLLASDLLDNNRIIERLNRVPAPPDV
Kind of assay: IKKi Invitrogen kinase activity assay. As to conditions: Compound concentration 1.0 uM.

Assay [5] concerns the target Insulin receptor (Homo sapiens) (UniProt P06213). The assay can be described thus: INSR Invitrogen kinase activity assay. To be noted: Compound concentration 1.0 uM.
Assay [6] deals with Mitogen-activated protein kinase 1 (Homo sapiens) (UniProt P28482). The assay can be described thus: MAPK1/ERK2 Invitrogen kinase activity assay. As to conditions: Compound concentration 1.0 uM.
The target in assay [7] is MAP kinase-activated protein kinase 2 (Homo sapiens) (UniProt P49137). Kind of assay: MAPKAPK2 Invitrogen kinase activity assay. As to conditions: Compound concentration 1.0 uM.
Assay [8] has as its target Rho-associated protein kinase 1 (Homo sapiens) (UniProt Q13464). The assay can be described thus: ROCK1 Invitrogen kinase activity assay. To be noted: Compound concentration 1.0 uM.
Assay [9] has as its target T4, Serine/threonine-protein kinase Sgk1 (Homo sapiens) (UniProt O00141).
T4 sequence (whole entry): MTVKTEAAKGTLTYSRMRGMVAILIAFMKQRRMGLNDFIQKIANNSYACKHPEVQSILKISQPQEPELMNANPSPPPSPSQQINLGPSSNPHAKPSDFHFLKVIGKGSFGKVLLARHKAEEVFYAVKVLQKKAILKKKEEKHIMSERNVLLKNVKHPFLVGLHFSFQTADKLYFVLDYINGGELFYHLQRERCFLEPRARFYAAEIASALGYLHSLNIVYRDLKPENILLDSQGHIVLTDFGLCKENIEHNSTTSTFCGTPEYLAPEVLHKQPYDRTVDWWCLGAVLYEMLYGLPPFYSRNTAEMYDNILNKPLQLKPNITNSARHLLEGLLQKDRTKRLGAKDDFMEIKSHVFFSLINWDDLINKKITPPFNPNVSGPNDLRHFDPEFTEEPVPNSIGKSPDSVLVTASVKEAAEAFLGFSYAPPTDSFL
Kind of assay: SGK Invitrogen kinase activity assay. As to conditions: Compound concentration 1.0 uM.

Assay [10] concerns the target T1, D(1A) dopamine receptor. As to conditions: Compound concentration 10.0 uM.
Assay [11] has as its target Muscarinic acetylcholine receptor M4 (Homo sapiens) (UniProt P08173). As to conditions: Compound concentration 10.0 uM.

T1 sequence (P21728 whole entry): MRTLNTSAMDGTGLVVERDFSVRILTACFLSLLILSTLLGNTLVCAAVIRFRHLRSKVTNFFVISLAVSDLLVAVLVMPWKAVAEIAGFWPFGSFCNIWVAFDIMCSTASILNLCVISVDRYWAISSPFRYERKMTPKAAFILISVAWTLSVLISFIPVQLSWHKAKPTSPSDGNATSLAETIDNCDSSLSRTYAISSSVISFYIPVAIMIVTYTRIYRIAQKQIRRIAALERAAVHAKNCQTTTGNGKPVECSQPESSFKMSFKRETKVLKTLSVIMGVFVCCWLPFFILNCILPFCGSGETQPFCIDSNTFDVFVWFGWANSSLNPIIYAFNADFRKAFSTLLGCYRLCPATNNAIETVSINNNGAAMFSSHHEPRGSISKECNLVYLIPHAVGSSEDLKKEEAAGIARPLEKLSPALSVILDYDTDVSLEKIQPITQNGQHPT
Sequence of Insulin receptor (Homo sapiens) (P06213 28-758 limits assumed): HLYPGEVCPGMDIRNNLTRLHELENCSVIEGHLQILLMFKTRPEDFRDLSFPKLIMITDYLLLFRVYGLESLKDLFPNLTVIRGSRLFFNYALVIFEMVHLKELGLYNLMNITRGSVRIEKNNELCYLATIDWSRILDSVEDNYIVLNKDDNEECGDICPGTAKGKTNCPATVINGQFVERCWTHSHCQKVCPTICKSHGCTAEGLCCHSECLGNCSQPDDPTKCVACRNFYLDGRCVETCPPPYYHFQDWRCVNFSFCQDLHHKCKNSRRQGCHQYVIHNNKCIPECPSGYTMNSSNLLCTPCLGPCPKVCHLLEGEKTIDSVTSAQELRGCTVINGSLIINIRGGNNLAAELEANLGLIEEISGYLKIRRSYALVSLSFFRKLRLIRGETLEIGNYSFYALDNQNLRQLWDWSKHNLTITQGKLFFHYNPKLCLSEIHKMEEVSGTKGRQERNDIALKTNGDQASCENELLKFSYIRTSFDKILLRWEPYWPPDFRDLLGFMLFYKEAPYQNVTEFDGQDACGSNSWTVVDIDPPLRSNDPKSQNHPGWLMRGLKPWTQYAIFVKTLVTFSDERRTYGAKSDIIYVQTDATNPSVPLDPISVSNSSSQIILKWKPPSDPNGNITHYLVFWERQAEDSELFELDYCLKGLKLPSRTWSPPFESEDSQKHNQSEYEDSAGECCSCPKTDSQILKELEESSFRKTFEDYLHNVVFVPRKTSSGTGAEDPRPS
Sequence of Insulin receptor (Homo sapiens) (P06213 763-1382 limits assumed): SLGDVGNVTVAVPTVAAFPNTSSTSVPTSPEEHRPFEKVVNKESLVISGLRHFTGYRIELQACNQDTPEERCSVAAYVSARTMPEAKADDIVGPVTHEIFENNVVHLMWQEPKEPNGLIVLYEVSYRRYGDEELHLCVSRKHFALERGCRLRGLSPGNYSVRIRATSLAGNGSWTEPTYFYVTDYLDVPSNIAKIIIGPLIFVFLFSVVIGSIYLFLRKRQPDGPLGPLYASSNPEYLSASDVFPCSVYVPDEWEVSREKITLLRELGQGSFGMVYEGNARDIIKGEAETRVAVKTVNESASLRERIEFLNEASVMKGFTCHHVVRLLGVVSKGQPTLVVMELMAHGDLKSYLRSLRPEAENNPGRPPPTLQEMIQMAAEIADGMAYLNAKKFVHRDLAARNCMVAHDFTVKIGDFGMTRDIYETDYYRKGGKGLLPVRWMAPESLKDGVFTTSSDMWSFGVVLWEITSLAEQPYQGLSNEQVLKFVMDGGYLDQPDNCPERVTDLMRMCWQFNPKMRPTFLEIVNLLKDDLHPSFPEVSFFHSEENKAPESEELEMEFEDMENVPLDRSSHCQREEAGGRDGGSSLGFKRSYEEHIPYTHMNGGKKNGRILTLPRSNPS
Sequence of Muscarinic acetylcholine receptor M4 (Homo sapiens) (P08173 whole entry): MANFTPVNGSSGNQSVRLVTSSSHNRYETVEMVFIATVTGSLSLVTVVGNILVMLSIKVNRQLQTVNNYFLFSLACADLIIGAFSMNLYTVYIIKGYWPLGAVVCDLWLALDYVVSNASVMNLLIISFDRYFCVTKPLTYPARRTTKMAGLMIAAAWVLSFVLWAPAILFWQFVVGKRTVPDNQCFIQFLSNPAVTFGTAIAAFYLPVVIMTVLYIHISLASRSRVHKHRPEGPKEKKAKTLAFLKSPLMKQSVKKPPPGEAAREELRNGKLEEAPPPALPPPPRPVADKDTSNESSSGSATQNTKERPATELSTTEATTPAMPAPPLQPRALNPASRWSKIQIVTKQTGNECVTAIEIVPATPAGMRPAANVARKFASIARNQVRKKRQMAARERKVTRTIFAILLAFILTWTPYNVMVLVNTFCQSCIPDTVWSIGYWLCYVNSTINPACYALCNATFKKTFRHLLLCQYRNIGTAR
Sequence of Casein kinase II subunit alpha (Homo sapiens) (P68400 whole entry, looked up): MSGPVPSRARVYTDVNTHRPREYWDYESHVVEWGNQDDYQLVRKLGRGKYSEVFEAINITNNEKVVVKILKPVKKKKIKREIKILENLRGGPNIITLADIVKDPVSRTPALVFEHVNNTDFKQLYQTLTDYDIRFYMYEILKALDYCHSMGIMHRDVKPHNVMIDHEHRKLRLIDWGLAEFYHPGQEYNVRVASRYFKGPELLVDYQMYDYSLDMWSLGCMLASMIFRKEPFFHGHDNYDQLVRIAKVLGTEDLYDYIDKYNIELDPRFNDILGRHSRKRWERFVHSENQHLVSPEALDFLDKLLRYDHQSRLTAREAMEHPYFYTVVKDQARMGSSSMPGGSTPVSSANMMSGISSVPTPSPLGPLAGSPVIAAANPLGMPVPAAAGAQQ
Sequence of Adenosine receptor A2a (P29274 whole entry): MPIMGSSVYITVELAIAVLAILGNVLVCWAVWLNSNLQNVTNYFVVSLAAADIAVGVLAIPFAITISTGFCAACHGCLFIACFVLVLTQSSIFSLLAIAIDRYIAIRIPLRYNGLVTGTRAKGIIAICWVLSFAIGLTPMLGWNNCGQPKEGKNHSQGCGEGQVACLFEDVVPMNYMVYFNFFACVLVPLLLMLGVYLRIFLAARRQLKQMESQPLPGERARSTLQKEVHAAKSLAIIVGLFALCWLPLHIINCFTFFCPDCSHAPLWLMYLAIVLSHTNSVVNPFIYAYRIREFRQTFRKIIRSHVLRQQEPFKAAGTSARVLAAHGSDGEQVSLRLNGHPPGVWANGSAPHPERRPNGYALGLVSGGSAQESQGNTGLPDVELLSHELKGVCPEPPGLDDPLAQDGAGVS
Sequence of Rho-associated protein kinase 1 (Homo sapiens) (Q13464 2-1354 limits assumed): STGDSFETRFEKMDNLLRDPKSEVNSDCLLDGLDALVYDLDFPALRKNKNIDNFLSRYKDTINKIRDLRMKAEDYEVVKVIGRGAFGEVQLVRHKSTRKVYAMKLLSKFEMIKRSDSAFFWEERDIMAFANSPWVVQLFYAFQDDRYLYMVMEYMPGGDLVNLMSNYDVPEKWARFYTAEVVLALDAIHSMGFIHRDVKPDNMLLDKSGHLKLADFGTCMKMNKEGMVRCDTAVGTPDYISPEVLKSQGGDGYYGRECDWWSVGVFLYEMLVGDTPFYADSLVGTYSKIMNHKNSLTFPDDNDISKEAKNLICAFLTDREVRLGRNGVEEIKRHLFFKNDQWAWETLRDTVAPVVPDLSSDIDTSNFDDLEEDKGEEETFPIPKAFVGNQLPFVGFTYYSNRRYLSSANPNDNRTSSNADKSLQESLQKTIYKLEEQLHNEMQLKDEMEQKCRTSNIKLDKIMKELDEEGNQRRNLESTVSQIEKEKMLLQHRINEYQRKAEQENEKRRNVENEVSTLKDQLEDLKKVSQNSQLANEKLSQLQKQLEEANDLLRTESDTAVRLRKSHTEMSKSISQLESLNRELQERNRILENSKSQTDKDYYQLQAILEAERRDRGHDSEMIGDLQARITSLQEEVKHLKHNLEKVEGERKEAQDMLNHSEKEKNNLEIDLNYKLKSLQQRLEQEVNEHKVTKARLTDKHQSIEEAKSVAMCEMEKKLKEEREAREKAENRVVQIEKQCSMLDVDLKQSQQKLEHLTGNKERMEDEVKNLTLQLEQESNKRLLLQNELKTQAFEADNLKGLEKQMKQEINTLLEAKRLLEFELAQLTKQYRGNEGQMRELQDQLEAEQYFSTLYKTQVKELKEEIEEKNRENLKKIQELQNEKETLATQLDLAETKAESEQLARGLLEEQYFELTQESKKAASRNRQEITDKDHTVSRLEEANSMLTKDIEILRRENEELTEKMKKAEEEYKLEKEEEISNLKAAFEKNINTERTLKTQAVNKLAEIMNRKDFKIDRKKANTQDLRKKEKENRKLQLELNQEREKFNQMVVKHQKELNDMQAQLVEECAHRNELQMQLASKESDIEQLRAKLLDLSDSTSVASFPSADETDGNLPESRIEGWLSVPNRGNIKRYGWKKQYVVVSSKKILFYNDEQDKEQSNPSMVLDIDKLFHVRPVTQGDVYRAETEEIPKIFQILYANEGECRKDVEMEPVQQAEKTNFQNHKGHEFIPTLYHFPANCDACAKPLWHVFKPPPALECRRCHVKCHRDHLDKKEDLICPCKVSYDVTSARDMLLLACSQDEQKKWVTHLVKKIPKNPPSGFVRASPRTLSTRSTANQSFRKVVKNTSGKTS
Sequence of MAP kinase-activated protein kinase 2 (Homo sapiens) (P49137 whole entry, looked up): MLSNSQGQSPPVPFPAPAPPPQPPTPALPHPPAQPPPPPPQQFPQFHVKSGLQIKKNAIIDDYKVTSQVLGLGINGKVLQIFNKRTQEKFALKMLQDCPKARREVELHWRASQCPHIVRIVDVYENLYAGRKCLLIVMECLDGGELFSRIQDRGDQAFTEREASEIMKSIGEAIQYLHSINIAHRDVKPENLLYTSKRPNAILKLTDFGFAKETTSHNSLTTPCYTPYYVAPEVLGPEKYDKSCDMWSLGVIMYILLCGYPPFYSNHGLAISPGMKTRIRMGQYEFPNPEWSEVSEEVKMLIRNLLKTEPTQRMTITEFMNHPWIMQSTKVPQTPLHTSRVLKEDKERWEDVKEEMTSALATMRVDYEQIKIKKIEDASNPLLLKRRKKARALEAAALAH

Usually Ki stands for a dissociation constant, usually derived from enzyme kinetics or from competition with a known ligand. Broadly, the inhibition is the relative decrease from the control value, in per cent. `CNC(=O)c1ccc(Nc2ncc(C(F)(F)F)c(NCc3nccnc3N(C)S(C)(=O)=O)n2)cc1` [DEFACTINIB]: the Ki on D(1A) dopamine receptor [1] was 10 µM; at Adenosine receptor A2a it was 0.37 µM (not active). In addition, the inhibition in [2] is 23%; in assay [3], 43%; in assay [4], 8%; in [5] it was 50%; in [6], 35%; in assay [7], 2%. Also, the figures for the inhibition in assay [8] and in assay [9] were 20% and 30%, respectively.
As to `CN(c1ccnc(CNc2nc(Nc3ccc4c(c3)CC(=O)N4)ncc2C(F)(F)F)n1)S(C)(=O)=O` [PF-00911705], the figures for the inhibition (at D(1A) dopamine receptor [10]; in assay [11]) were 0.76% and 8.94%, respectively.
